Like-named read-outs stand apart in the source and are kept apart here.
Experiments:
[1] = Safety and tolerability of RAVICTI co-administered with celecoxib; format: in vivo, human
Description: Safety: Safety and tolerability were assessed through adverse events (AEs), clinical laboratory results, physical examination findings, vital sign measurements, and electrocardiograms (ECGs).
Safety: Safety data were summarized by treatment and time point. Descriptive statistics (mean, standard deviation [SD], minimum, median, maximum, and sample size [N]) were calculated for quantitative safety data and frequency counts were compiled for classification of qualitative safety data. AE verbatim terms were mapped to preferred terms and system organ classes using the Medical Dictionary for Regulatory Activities (MedDRA®) (Version 18.0). Concomitant medications were coded with the World Health Organization (WHO) Dictionary version 1Mar. 2015.

CYP1A2 = molecular target: T1, CYP1A2 (Homo sapiens, UniProt P05177); format: in vitro ADME; settings: 7-ethoxyresorufin-O-deethylase, 5 mM
T1 construct: from tissue; host or cells: human liver microsomes
T1 sequence (P05177 1-516): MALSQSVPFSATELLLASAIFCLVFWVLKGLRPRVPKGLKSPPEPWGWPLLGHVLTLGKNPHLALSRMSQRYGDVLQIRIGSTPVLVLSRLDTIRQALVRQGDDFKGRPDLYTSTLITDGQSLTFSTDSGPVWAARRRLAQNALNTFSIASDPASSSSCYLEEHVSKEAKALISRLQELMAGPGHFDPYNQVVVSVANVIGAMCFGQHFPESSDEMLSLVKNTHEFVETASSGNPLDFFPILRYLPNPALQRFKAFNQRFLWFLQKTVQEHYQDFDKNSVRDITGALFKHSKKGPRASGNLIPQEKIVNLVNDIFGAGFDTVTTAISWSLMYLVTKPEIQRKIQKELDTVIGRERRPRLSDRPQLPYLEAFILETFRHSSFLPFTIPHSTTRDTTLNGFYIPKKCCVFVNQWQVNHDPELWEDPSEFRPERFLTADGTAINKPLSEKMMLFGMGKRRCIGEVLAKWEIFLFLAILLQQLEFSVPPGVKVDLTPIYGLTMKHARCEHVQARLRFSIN

CYP2C19 = molecular target: T2, CYP2C19 (Homo sapiens, UniProt P33261); format: in vitro ADME; settings: S-Mephenytoin 4′-hydroxylase, 5 mM
T2 construct: from tissue; host or cells: human liver microsomes
T2 sequence (P33261 whole entry): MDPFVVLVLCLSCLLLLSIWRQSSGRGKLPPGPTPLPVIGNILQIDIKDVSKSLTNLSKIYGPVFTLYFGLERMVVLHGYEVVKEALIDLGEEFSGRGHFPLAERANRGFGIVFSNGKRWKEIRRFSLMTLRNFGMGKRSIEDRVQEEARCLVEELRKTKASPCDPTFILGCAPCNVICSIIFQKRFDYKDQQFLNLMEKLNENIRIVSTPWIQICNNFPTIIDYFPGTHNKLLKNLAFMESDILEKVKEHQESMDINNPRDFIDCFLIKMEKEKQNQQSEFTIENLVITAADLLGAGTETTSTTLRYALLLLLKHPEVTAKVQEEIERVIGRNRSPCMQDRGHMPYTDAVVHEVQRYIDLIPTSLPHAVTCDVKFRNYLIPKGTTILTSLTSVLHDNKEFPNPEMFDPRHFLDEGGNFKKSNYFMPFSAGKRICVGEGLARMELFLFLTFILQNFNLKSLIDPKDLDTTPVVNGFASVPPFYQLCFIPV

[2] = RAVICTI co-administered with celecoxib, 28 healthy subjects

With `O=C(CCCc1ccccc1)OCC(COC(=O)CCCc1ccccc1)OC(=O)CCCc1ccccc1` [RAVICTI, benzenebutanoic acid, 1′,1″-(1,2,3-propanetriyl) ester] the “deaths, SAEs, discontinuations due to AEs” value [1, 2] was “no deaths, SAEs, or subject discontinuations due to AEs”, the “subjects experiencing TEAEs” value [1, 2] was 8 subjects and the “total TEAEs” value [1, 2] was 23. For the same compound, the “safety and tolerability (conclusion)” value ([1]; oral RAVICTI co-administered with celecoxib, healthy adults) was “safe and generally well tolerated”, the “% Inhibition” value (CYP1A2; pre-incubation time 0 min) was 5% and the “% Inhibition” value (CYP1A2; pre-incubation time 30 min) was 8%. The “% Inhibition” value (CYP2C19; pre-incubation time 0 min) was 8% and the “% Inhibition” value (CYP2C19; pre-incubation time 30 min) was 7%.
